Values quoted from earlier work as cited in patent publication US20180035685A1, “ANTIMICROBIAL COMPOSITIONS” (priority 2015, published 2018).

How the values were obtained:
[1] = stored in cold; applied at 300 ppm
Listeria = details: pure form; Mandalari et al. (2007)

Row | Structure (SMILES) | Antimicrobial effect on raw beef MAP meat [1] | Effect on Listerial growth in vitro (Listeria)
1 | O=c1oc2c(O)c(O)cc3c(=O)oc4c(O)c(O)cc1c4c23 [ellagic acid] | no antimicrobial effect | –
2 | COc1ccc([C@@H]2CC(=O)c3c(O)cc(O[C@@H]4O[C@H](CO)[C@@H](O)[C@H](O)[C@H]4O[C@@H]4O[C@@H](C)[C@H](O)[C@@H](O)[C@H]4O)cc3O2)cc1O [neohesperidin] | – | no effect on Listerial growth
